# Values of other authors, collected in patent US6475716B1, “Method for preserving mammalian organs” (Biobank Co., Ltd., priority 2001, dated 2002).
# System: cell membranes of the heart
# Conditions: heart exposed to low temperature of 4° C. or ischemic injury
smiles,measurement,value
OC[C@H]1O[C@H](O[C@H]2O[C@H](CO)[C@@H](O)[C@H](O)[C@H]2O)[C@H](O)[C@@H](O)[C@@H]1O [trehalose],protection of cell membranes of the heart,had the ability to protect cell membranes of the heart
